Assay results as given in PMC5011342, “A high throughput drug screening assay to identify compounds that promote oligodendrocyte differentiation using acutely dissociated and purified oligodendrocyte precursor cells” (BMC Research Notes, 2016).
Like-named read-outs stand apart in the source and are kept apart here. Blank lines part the entries; values can stand above or below the molecule they belong to.

What was measured:
[1] = tested on: acutely dissociated and purified rat OPCs; experiment: Acute OL differentiation assay (MBP expression/cell, immunofluorescent image quantification); type: cell-based
How it was run: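 Oligodendrocyte precursor cells were enriched from P6-P7 Sprague–Dawley rat brains by immunopanning (RAN-2 and GalC depletion, O4 selection), plated at 5000 cells/well in serum-free, mitogen-free differentiation media on PDL/laminin 96-well view plates, centrifuged at 200×g, and pre-incubated 1–2 h before test compounds were added in quadruplicate. On DIV4, cells were fixed, stained for MBP and DAPI, imaged automatically, and MBP expression per cell was quantified.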

expanded OPCs = experiment: cells; conditions: for 0.1 µM (% DMSO) / 1 µM (% DMSO) / 10 µM (% DMSO): alamarBlue viability of expanded OPCs; for 0.1 µM (% DMSO): compound at 0.1 µM; for 1 µM (% DMSO): compound at 1 µM; for 10 µM (% DMSO): compound at 10 µM; for viability at 0.1 µM / viability at 1 µM / viability at 10 µM: Rattus norvegicus, 72 h
How it was run: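 Expanded OPCs seeded at 10,000 cells/well in differentiation media, then exposed to NCC library compounds at 10, 1 and 0.1 µM (quadruplicate, 0.1% DMSO) for three days. Viability read as alamarBlue fluorescence (560/590 nm) after 4 h at 37 °C; tunicamycin 5 ng/ml served as toxicity control.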

[2] = Rattus norvegicus, test compound at 0.4 uM, NCC library screen, sheet "All OLga data", relative to quetiapine, read-out: 0.4 uM (% Quet)
[3] = Rattus norvegicus, test compound at 2 uM, NCC library screen, sheet "All OLga data", relative to quetiapine, read-out: 2 uM (% Quet)
[4] = Rattus norvegicus, test compound at 10 uM, NCC library screen, sheet "All OLga data", relative to quetiapine, read-out: 10 uM (% Quet)
[5] = read-out: 0.1 µM (% DMSO), alamarBlue viability, NCC library compound at 0.1 µM, sheet "All Tox data"
[6] = read-out: 1 µM (% DMSO), alamarBlue viability, NCC library compound at 1 µM, sheet "All Tox data"
[7] = read-out: 10 µM (% DMSO), alamarBlue viability, NCC library compound at 10 µM, sheet "All Tox data"
[8] = Rattus norvegicus, 2 uM test compound, relative to quetiapine, sheet "All OLga data", read-out: OL differentiation, 2 uM (% Quet)
[9] = Rattus norvegicus, 10 uM test compound, relative to quetiapine, sheet "All OLga data", read-out: OL differentiation, 10 uM (% Quet)
[10] = read-out: 0.1 µM (% DMSO), alamarBlue viability of expanded OPCs, compound at 0.1 µM, sheet All Tox data
[11] = read-out: 1 µM (% DMSO), alamarBlue viability of expanded OPCs, compound at 1 µM, sheet All Tox data
[12] = read-out: 10 µM (% DMSO), alamarBlue viability of expanded OPCs, compound at 10 µM, sheet All Tox data
[13] = Rattus norvegicus, test compound at 0.4 uM, MBP expression relative to quetiapine, NCC library screen, sheet "All OLga data", read-out: 0.4 uM (% Quet)

SMILES: CCCNCC(O)COc1ccccc1C(=O)CCc1ccccc1 (stereo not drawn) [Propafenone]
activation at 0.4 µM [1, 2]: -15.2%
activation at 2 µM [1, 3]: -3.3%
0.1 µM (% DMSO) (expanded OPCs; relative to DMSO control): 76.8 % DMSO
1 µM (% DMSO) (expanded OPCs; relative to DMSO control): 58.7 % DMSO
10 µM (% DMSO) (expanded OPCs; relative to DMSO control): 29.5 % DMSO

SMILES: Cc1cccc(C)c1NC(=O)C1CCCCN1C (stereo not drawn) [Mepivacaine]
activation at 2 µM [1, 3]: -6.4%
activation at 10 µM [1, 4]: -0.9%
viability at 0.1 µM (expanded OPCs; [5]): 89.5%
viability at 1 µM (expanded OPCs; [6]): 89.9%
viability at 10 µM (expanded OPCs; [7]): 79.7%

SMILES: C[C@@H]1C[C@H]2[C@@H]3C[C@H](F)C4=CC(=O)C(Cl)=C[C@]4(C)[C@@]3(F)[C@@H](O)C[C@]2(C)[C@@]1(O)C(=O)CO.O [Halometasone hydrate]
OL differentiation, 2 uM (% Quet) ([1]; 2 uM test compound, relative to quetiapine, sheet "All OLga data"): -42.5 % Quet
OL differentiation, 10 uM (% Quet) ([1]; 10 uM test compound, relative to quetiapine, sheet "All OLga data"): -89.7 % Quet
0.1 µM (% DMSO) (expanded OPCs; sheet All Tox data): 103.7 % DMSO
1 µM (% DMSO) (expanded OPCs; sheet All Tox data): 109.3 % DMSO
10 µM (% DMSO) (expanded OPCs; sheet All Tox data): 105.9 % DMSO

EC50 ([1]; Rattus norvegicus, average EC50 for induction of OL differentiation from independent biological replicates, eight concentrations): 240 µM
SMILES: COC(=O)CCc1ccc(OCC(O)CNC(C)C)cc1 (stereo not drawn) [Esmolol, reference compound]
activation at 2 µM [1, 8]: 39.8%
activation at 10 µM [1, 9]: 29.6%
hit in OL differentiation assay, MRF-TMC ([1]; ● = confirmed hit in this paper's assay): ●
viability at 0.1 µM (expanded OPCs; [10]): 93.8%
viability at 1 µM (expanded OPCs; [11]): 98.2%
viability at 10 µM (expanded OPCs; [12]): 113%

SMILES: CN(C)CCCN1c2ccccc2CCc2ccc(Cl)cc21 [Clomipramine]
activation at 0.08 µM ([1]; Rattus norvegicus, test compound at 0.08 uM, MBP expression relative to quetiapine, NCC library screen, sheet "All OLga data", read-out: 0.08 uM (% Quet)): 18.5%
activation at 0.4 µM [1, 13]: -59.9%
0.1 µM (% DMSO) (expanded OPCs; relative to DMSO control): 76.2 % DMSO
1 µM (% DMSO) (expanded OPCs; relative to DMSO control): 37.7 % DMSO
10 µM (% DMSO) (expanded OPCs; relative to DMSO control): 8.7 % DMSO

SMILES: CN1C(C(=O)Nc2ccccn2)=C(O)c2ccccc2S1(=O)=O [Piroxicam]
activation at 2 µM [1, 3]: 12.1%
activation at 10 µM [1, 4]: -2.1%
viability at 0.1 µM (expanded OPCs; [5]): 91.3%
viability at 1 µM (expanded OPCs; [6]): 88.3%
viability at 10 µM (expanded OPCs; [7]): 87.1%

SMILES: CC(C)NCC(O)COc1ccc(CC(N)=O)cc1 (stereo not drawn) [Atenolol]
activation at 2 µM [1, 3]: 31.5%
activation at 10 µM [1, 4]: 86.2%
0.1 µM (% DMSO) (expanded OPCs; relative to DMSO control): 90.5 % DMSO
1 µM (% DMSO) (expanded OPCs; relative to DMSO control): 105.2 % DMSO
10 µM (% DMSO) (expanded OPCs; relative to DMSO control): 146.2 % DMSO

SMILES: COc1ccc([C@@H]2Sc3ccccc3N(CCN(C)C)C(=O)[C@@H]2OC(C)=O)cc1 [Diltiazem]
activation at 0.4 µM [1, 2]: -12.2%
activation at 2 µM [1, 3]: -2.4%
0.1 µM (% DMSO) (expanded OPCs; relative to DMSO control): 81.4 % DMSO
1 µM (% DMSO) (expanded OPCs; relative to DMSO control): 67.2 % DMSO
10 µM (% DMSO) (expanded OPCs; relative to DMSO control): 48.7 % DMSO

SMILES: Cc1ccc(S(=O)(=O)NC(=O)NN2CCCCCC2)cc1 [Tolazamide]
activation at 2 µM [1, 3]: -14.2%
activation at 10 µM [1, 4]: -2%
0.1 µM (% DMSO) (expanded OPCs; relative to DMSO control): 100.3 % DMSO
1 µM (% DMSO) (expanded OPCs; relative to DMSO control): 95.8 % DMSO
10 µM (% DMSO) (expanded OPCs; relative to DMSO control): 99.9 % DMSO

SMILES: CCC(C(N)=O)N1CCCC1=O (stereo not drawn) [Etiracetam]
activation at 2 µM [1, 8]: -3.1%
activation at 10 µM [1, 9]: -6.3%
viability at 0.1 µM (expanded OPCs; [10]): 86.3%
viability at 1 µM (expanded OPCs; [11]): 90.6%
viability at 10 µM (expanded OPCs; [12]): 91.7%

SMILES: CC(N)C12CC3CC(CC(C3)C1)C2 (stereo not drawn) [Rimantadine]
activation at 0.4 µM [1, 13]: -17.2%
activation at 2 µM ([1]; Rattus norvegicus, test compound at 2 uM, MBP expression relative to quetiapine, NCC library screen, sheet "All OLga data", read-out: 2 uM (% Quet)): -11.2%
0.1 µM (% DMSO) (expanded OPCs; relative to DMSO control): 89.9 % DMSO
1 µM (% DMSO) (expanded OPCs; relative to DMSO control): 83.2 % DMSO
10 µM (% DMSO) (expanded OPCs; relative to DMSO control): 32.9 % DMSO

SMILES: C=CCc1ccc(O)c(-c2ccc(O)c(CC=C)c2)c1 [Honokiol]
activation at 0.4 µM ([1]; Rattus norvegicus, 0.4 uM test compound, relative to quetiapine, sheet "All OLga data", read-out: OL differentiation, 0.4 uM (% Quet)): 9.1%
viability at 0.1 µM (expanded OPCs; [10]): 95.4%
viability at 1 µM (expanded OPCs; [11]): 78.2%
viability at 10 µM (expanded OPCs; [12]): 11.4%

SMILES: CN1C(=O)COc2c(C(=O)NC3CN4CCC3CC4)cc(Cl)cc21 (stereo not drawn) [Azasetron]
activation at 2 µM [1, 8]: -8.9%
activation at 10 µM [1, 9]: -16.8%
viability at 0.1 µM (expanded OPCs; [5]): 94.2%
viability at 1 µM (expanded OPCs; [6]): 80.9%
viability at 10 µM (expanded OPCs; [7]): 76.8%
